The target of this assay is D-xylose isomerase (Streptomyces pseudogriseolus, UniProt P24300). As to the kind of experiment: competitive inhibition of D-xylose isomerization. The format is biochemical.
D-xylose isomerase, sequence (P24300 2-388): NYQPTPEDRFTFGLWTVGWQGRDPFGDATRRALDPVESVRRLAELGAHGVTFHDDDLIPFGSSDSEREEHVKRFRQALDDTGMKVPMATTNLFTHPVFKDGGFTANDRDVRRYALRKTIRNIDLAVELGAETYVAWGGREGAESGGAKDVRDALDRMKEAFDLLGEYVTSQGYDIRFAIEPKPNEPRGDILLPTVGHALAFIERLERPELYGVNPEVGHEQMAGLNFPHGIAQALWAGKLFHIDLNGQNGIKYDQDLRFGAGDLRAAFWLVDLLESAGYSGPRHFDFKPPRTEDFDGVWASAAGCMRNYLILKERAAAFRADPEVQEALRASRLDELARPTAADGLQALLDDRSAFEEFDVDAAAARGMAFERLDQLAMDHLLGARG

In the case of `O=C[C@H](O)CO` [DGA, D-glyceraldehyde], the inhibition constant Ki was determined as 3 mM.

As a reminder, the Ki is a measure of affinity in units of concentration, obtained from inhibition or displacement. Higher therefore signals weaker binding.

The values are drawn from paper PMC3217161 (2011).
